{"source": "patent US5556857A", "about": "“Disturbance-of-consciousness improving agent” (priority 1991, dated 1996)", "key": {"[1]": {"test_system": "mouse model of coma following head injury", "test": "Evaluation of disturbance-of-consciousness improving effect in a mouse model of coma following head injury", "assay_type": "in vivo", "details": "Oral, 30 mg/kg"}, "sigma receptor [2]": {"target": "sigma receptor", "test": "Binding affinity for the sigma receptor ([3H]-DTG binding test)", "parameters": "species or system Wistar strain male rat", "details": "[3H]-DTG 3 nM, rat whole brain membrane, 25° C., 60 minutes; ± SED; read-out: Inhibitory activity IC50", "experimental": "Binding affinity for the sigma receptor\nA membrane fraction was prepared and a [^3 H]-1,3-di[2-tolyl]guanidine (DTG) binding test was performed, both by the method of Wettstein et al. [Wettstein, J. F., Romman, F. J., Rocher, M. N. and Junien, J. L., Psychopharmacology, 104, 157-163 (1991)]. Thus, a Wistar strain male rat was decapitated and the whole brain was excised and homogenized in 30 volumes of ice-cooled 50 mM Tris hydrochloride buffer (pH 7.4). The homogenate was then centrifuged at 4° C. and 50,000 g for 15 minutes. The sediment obtained was suspended in one volume of the same buffer as mentioned above and, after 45 minutes of incubation at 37° C., the suspension was centrifuged again. The sediment obtained was suspended in one volume of the same buffer and the suspension was stored frozen at -80° C. until use.\nThe binding experiment was performed as follows. […]\nThe filter was transferred to a vial and after addition of 5 ml of a liquid scintillation cocktail (Aquasol 2), the vial was allowed to stand in the dark for a predetermined time. The radioactivity was then measured using a scintillation counter. The amount of specific binding was determined by subtracting the binding amount in the presence of 10 μM haloperidol from the total binding amount. The IC50 values were calculated by computer analysis using the nonlinear least squares method."}, "sigma receptor [3]": {"test_system": "sigma receptor", "test": "Antagonistic experiment with sigma receptor antagonists on the disturbance-of-consciousness improving effect", "assay_type": "in vivo", "details": "10 mg/kg, alone", "experimental": "Antagonistic experiment with sigma receptor antagonists\nWhether the improving effect of sigma receptor agonists on impaired consciousness is due to their effect on specific receptors was investigated using test compounds 14 and 15 which are sigma receptor antagonists. […] Similarly, the disturbance-of-consciousness improving effect of test compounds 10 and 12 was inhibited by 30 mg of another sigma receptor antagonist test compound 15."}, "[4]": {"details": "literature; cited from earlier work"}, "sigma receptors": {"test_system": "sigma receptors", "details": "cited from earlier work"}, "[5]": {"details": "literature (Brain and Nerve, 39:983-990, 1987); cited from earlier work"}}, "note": "Like-named read-outs stand apart in the source and are kept apart here.", "data": [{"compound": "COc1cccc(N2CCN(CCCN3C(=O)CCc4c(Cl)cccc43)CC2)c1", "note": "[Example 2]", "values": [{"measurement": "RR time (time to recovery of righting reflex)", "setting": "[1]", "value": "28 % of control"}, {"measurement": "SM time (time to recovery of spontaneous mobility)", "setting": "[1]", "value": "28 % of control"}, {"measurement": "IC50", "setting": "sigma receptor [2]", "value": "130 ± 16", "unit": "nM"}]}, {"compound": "COc1cccc2c1CCC(=O)N2CCCN1CCN(c2cccc(Cl)c2)CC1.Cl", "note": "[Test compound 1, 1-{3-[4-(3-Chlorophenyl)-1-piperazinyl]propyl}-5-methoxy-3,4-dihydrocarbostyril hydrochloride]", "values": [{"measurement": "RR time (time to recovery of righting reflex)", "setting": "[1]", "value": "20 % of control"}, {"measurement": "SM time (time to recovery of spontaneous mobility)", "setting": "[1]", "value": "20 % of control"}, {"measurement": "RR time", "setting": "sigma receptor [3]", "value": 32, "unit": "% control"}, {"measurement": "SM time", "setting": "sigma receptor [3]", "value": 38, "unit": "% control"}, {"measurement": "IC50", "setting": "sigma receptor [2]", "value": "340 ± 110", "unit": "nM"}]}, {"compound": "CC(=O)OCC[N+](C)(C)C", "note": "[acetylcholine]", "values": [{"measurement": "side effects", "setting": "[4]", "value": "serious side effects"}]}, {"compound": "O=C(CCCN1CCC(O)(c2ccc(Cl)cc2)CC1)c1ccc(F)cc1", "note": "[haloperidol]", "values": [{"measurement": "side effects", "setting": "[4]", "value": "dystonia"}, {"measurement": "affinity for sigma receptors", "setting": "sigma receptors", "value": "have affinities for these receptors"}, {"measurement": "effect on impaired consciousness", "setting": "[5]", "value": "delays recovery from coma"}]}, {"compound": "CN[C@@H](C)Cc1ccccc1", "note": "[methamphetamine]", "values": [{"measurement": "side effects", "setting": "[4]", "value": "may produce an addictive behavior as well as schizophrenic responses such as hallucinations and delusion"}, {"measurement": "effect on impaired consciousness", "setting": "[5]", "value": "improves impaired consciousness"}]}, {"compound": "CC[C@@H](CO)NC(=O)[C@@H]1C=C2c3cccc4c3c(cn4C)C[C@H]2N(C)C1", "note": "[methysergide]", "values": [{"measurement": "effect on impaired consciousness", "setting": "[5]", "value": "improves impaired consciousness"}]}, {"compound": "c1ccc(C2(N3CCCCC3)CCCCC2)cc1", "note": "[phencyclidine]", "values": [{"measurement": "side effects", "setting": "[4]", "value": "induces schizophrenic responses such as hallucinations and delusion"}, {"measurement": "affinity for sigma receptors", "setting": "sigma receptors; literature", "value": "having an affinity for sigma receptors"}]}, {"compound": "CNC(=O)Oc1ccc2c(c1)[C@]1(C)CCN(C)[C@@H]1N2C", "note": "[physostigmine]", "values": [{"measurement": "effect on impaired consciousness", "setting": "[5]", "value": "effective in improving disturbances of consciousness at low non-toxic doses"}]}]}
